How the values were obtained:
hERG (KCNH2) = hERG (KCNH2) (Homo sapiens, UniProt Q12809); assay: Inhibition of hERG at 10 uM by patch clamp method relative to control; type: toxicity
[1] = Plasma clearance in BALB/c nu/nu mouse at 3 mg/kg, po; type: ADME, organism-based
RS4-11 [2] = assay: Antitumor activity against human RS4-11 cells xenografted in BALB/c nu/nu mouse assessed as reduction in DYRK1A autophosphorylation of S520 residue at 6.25 mg/kg, po measured after 2 hrs by western blotting analysis relative to control; type: functional; set-up: scale not given: the % may be the effect or the level left
RS4-11 [3] = assay: Antitumor activity against human RS4-11 cells xenografted in BALB/c nu/nu mouse reduction in DYRK1A autophosphorylation of S520 residue at 6.25 mg/kg, po measured after 6 hrs by western blotting analysis relative to control; type: functional; set-up: scale not given: the % may be the effect or the level left
RS4-11 [4] = assay: Antitumor activity against human RS4-11 cells xenografted in BALB/c nu/nu mouse assessed as reduction in DYRK1A autophosphorylation of S520 residue at 12.5 mg/kg, po measured after 2 hrs by western blotting analysis relative to control; type: functional; set-up: scale not given: the % may be the effect or the level left
RS4-11 [5] = assay: Antitumor activity against human RS4-11 cells xenografted in BALB/c nu/nu mouse assessed as reduction in DYRK1A autophosphorylation of S520 residue at 12.5 mg/kg, po measured after 6 hrs by western blotting analysis relative to control; type: functional; set-up: scale not given: the % may be the effect or the level left
RS4-11 [6] = assay: Antitumor activity against human RS4-11 cells xenografted in BALB/c nu/nu mouse assessed as reduction in DYRK1A autophosphorylation of S520 residue at 25 mg/kg, po measured after 6 hrs by western blotting analysis relative to control; type: functional; set-up: scale not given: the % may be the effect or the level left
A2780 [7] = assay: Antitumor activity against human A2780 cells xenografted in BALB/c nu/nu mouse assessed as reduction in DYRK1A autophosphorylation of S520 residue at 4.687 mg/kg, po measured after 2 hrs by western blotting analysis relative to control; type: functional; set-up: scale not given: the % may be the effect or the level left
A2780 [8] = assay: Antitumour activity against human A2780 cells xenografted in BALB/c nu/nu mouse assessed as reduction in DYRK1A autophosphorylation of S520 residue at 9.375 mg/kg, po measured after 6 hrs by western blotting analysis relative to control; type: functional; set-up: scale not given: the % may be the effect or the level left
A2780 [9] = assay: Antitumor activity against human A2780 cells xenografted in BALB/c nu/nu mouse assessed as reduction in DYRK1A autophosphorylation of S520 residue at 18.75 mg/kg, po measured after 6 hrs by western blotting analysis relative to control; type: functional; set-up: scale not given: the % may be the effect or the level left
A2780 [10] = assay: Antitumor activity against human A2780 cells xenografted in Balb/c mouse assessed as inhibition of tumor growth at 18.75 mg/kg, po bid for 14 days relative to control; type: functional; conditions: 336 h, time 14 day, read-out: TGI
A2780 [11] = assay: Antitumor activity against human A2780 cells xenografted in Balb/c mouse assessed as inhibition of tumor growth at 37.5 mg/kg, po bid for 14 days relative to control; type: functional; conditions: 336 h, time 14 day, read-out: TGI
[12] = Toxicity in Balb/c nude mouse xenografted with human A2780 cells assessed as decrease in body weight at 4.75 mg/kg, po bid for 14 days relative to control; type: organism-based; set-up: scale not given: the % may be the effect or the level left; conditions: in vivo, 336 h, time 14 day
[13] = Toxicity in Balb/c nude mouse xenografted with human A2780 cells assessed as decrease in body weight at 9.5 mg/kg, po bid for 14 days relative to control; type: organism-based; set-up: scale not given: the % may be the effect or the level left; conditions: in vivo, 336 h, time 14 day
[14] = Toxicity in Balb/c nude mouse xenografted with human A2780 cells assessed as decrease in body weight at 18.75 mg/kg, po bid for 14 days relative to control; type: organism-based; set-up: scale not given: the % may be the effect or the level left; conditions: in vivo, 336 h, time 14 day
[15] = Toxicity in Balb/c nude mouse xenografted with human A2780 cells assessed as decrease in body weight at 75 mg/kg, po bid for 14 days relative to control; type: organism-based; set-up: scale not given: the % may be the effect or the level left; conditions: in vivo, 336 h, time 14 day
A2780 [16] = assay: Antitumour activity against human A2780 cells xenografted in mouse assessed as reduction in DYRK1A autophosphorylation of S520 residue at 4.687 mg/kg, po meausred after 6 hrs by western blotting analysis relative to control; type: functional; set-up: scale not given: the % may be the effect or the level left
C-33-A = assay: cells; conditions: Homo sapiens, 120 h
SK-N-MC = assay: cells; conditions: Homo sapiens
A2780 [17] = assay: Antitumor activity against human A2780 cells xenografted in Balb/c mouse assessed as tumor volume T/C at 75 mg/kg, po bid for 14 days relative to control; conditions: time 14 day
A2780 [18] = assay: Antitumor activity against human A2780 cells xenografted in Balb/c mouse assessed as tumor volume T/C at 4.75 mg/kg, po bid for 14 days relative to control; conditions: time 14 day
A2780 [19] = assay: Antitumour activity against human A2780 cells xenografted in Balb/c mouse assessed as tumor volume T/C at 18.75 mg/kg, po bid for 14 days relative to control; conditions: time 14 day
A2780 [20] = assay: Antitumour activity against human A2780 cells xenografted in Balb/c mouse assessed as tumour volume T/C at 37.5 mg/kg, po bid for 14 days relative to control; conditions: time 14 day
[21] = molecular target: Homeodomain-interacting protein kinase 1 (Homo sapiens) (UniProt Q86Z02); assay: Residual activity of HIPK1 (unknown origin) at 10 nM using Ulight-MBP as substrate and ATP as co-substrate incubated for 40 mins and measured after 1 hr by TR-FRET assay relative to control; conditions: time 100.0 min
[22] = molecular target: Dual specificity tyrosine-phosphorylation-regulated kinase 1A (Homo sapiens, UniProt Q13627); assay: Residual activity of DYRK1A (unknown origin) at 10 nM using Ulight-MBP as substrate and ATP as co-substrate incubated for 40 mins and measured after 1 hr by TR-FRET assay relative to control; conditions: time 100.0 min
[23] = molecular target: Dual specificity tyrosine-phosphorylation-regulated kinase 1B (Homo sapiens) (UniProt Q9Y463); assay: Residual activity of DYRK1B (unknown origin) at 10 nM using Ulight-MBP as substrate and ATP as co-substrate incubated for 40 mins and measured after 1 hr by TR-FRET assay relative to control; conditions: time 100.0 min
Dual specificity tyrosine-phosphorylation-regulated kinase 1B (Homo sapiens), sequence (Q9Y463 whole entry, looked up): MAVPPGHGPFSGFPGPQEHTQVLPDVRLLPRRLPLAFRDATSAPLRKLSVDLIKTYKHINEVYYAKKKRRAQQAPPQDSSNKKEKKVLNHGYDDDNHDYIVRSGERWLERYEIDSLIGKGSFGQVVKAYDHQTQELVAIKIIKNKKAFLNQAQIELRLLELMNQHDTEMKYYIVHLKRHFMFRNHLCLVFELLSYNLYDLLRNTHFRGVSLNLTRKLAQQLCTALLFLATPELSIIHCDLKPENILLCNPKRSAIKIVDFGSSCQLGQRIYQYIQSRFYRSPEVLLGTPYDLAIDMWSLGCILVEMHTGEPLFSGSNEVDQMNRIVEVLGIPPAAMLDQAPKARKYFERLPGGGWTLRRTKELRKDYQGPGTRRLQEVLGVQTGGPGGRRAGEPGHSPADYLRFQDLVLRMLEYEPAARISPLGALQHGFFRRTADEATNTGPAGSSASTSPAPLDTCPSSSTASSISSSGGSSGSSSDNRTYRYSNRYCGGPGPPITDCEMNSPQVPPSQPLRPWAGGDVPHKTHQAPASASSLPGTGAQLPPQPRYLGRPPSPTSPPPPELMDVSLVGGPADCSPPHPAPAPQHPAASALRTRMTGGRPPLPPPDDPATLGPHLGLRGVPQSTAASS

hERG (KCNH2), sequence (Q12809 whole entry): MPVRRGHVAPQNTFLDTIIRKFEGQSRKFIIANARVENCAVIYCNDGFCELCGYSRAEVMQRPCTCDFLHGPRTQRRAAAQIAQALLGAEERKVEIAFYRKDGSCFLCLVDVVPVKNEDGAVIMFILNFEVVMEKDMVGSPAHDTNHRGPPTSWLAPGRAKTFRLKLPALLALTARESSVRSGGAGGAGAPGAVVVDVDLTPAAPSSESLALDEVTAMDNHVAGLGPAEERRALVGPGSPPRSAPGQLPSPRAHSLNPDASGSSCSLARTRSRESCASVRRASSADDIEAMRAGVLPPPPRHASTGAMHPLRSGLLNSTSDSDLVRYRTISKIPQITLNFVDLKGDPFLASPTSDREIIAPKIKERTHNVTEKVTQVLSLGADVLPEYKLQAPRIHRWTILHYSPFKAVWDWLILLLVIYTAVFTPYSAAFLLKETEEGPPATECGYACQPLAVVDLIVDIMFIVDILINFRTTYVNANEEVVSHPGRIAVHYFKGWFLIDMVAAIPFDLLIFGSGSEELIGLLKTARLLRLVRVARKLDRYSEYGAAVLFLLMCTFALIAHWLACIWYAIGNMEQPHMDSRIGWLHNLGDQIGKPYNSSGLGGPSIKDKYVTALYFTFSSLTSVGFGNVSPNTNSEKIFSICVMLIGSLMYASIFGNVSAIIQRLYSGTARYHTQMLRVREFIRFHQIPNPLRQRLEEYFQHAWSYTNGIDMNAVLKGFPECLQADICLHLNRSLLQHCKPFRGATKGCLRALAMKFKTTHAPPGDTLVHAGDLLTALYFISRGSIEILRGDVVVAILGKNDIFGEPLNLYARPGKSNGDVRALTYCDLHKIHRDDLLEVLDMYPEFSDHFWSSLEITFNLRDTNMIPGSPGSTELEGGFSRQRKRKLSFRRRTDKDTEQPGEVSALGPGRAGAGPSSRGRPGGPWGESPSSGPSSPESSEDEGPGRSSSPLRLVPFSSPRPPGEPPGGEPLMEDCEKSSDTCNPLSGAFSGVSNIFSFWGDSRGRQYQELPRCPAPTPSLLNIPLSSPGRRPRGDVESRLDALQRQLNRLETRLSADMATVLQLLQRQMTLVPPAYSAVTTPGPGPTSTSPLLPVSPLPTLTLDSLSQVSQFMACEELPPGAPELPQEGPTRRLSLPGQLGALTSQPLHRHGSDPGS
Homeodomain-interacting protein kinase 1 (Homo sapiens), sequence (Q86Z02 whole entry, looked up): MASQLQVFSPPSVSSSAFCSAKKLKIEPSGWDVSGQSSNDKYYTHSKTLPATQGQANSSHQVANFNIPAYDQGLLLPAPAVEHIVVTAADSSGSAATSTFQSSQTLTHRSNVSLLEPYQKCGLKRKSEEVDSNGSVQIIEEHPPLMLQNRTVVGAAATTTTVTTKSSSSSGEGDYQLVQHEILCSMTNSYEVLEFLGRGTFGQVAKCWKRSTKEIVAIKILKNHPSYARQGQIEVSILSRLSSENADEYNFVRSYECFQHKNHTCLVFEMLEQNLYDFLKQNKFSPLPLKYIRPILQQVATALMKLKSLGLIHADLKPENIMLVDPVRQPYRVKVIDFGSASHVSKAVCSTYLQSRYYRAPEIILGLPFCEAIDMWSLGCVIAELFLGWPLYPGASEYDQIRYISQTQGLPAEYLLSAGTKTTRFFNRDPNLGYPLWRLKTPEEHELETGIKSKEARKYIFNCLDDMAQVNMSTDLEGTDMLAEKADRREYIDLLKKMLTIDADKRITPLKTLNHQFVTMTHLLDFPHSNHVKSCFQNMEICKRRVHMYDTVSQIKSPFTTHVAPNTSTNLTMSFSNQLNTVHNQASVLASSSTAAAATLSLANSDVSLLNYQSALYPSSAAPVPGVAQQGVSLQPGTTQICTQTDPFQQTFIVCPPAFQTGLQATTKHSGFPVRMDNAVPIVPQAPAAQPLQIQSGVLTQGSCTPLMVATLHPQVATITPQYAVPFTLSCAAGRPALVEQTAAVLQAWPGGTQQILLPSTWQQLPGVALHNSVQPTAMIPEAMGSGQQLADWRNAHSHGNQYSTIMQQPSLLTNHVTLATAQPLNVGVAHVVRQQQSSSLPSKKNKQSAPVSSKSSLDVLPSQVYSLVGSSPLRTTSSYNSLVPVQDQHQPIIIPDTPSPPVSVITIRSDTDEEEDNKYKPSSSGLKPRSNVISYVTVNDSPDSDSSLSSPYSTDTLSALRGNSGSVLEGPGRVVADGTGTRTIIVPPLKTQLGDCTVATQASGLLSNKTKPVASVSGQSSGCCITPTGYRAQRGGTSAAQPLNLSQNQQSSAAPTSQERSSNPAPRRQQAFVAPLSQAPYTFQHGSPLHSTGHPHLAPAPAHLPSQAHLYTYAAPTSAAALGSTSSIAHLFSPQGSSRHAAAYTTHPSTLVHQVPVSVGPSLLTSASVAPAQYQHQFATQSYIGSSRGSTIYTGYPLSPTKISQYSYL

CL/F [1]: 226 mL/min/kg | IC50 (C-33-A): 1020 nM | IC50 (SK-N-MC): 77 nM | residual activity [21]: 72% | residual activity [22]: 9.2% | residual activity [23]: 20%
SMILES: Cc1nc2ccc(-c3cc(N)nc(N)c3)nc2n1C1CC1
inhibition at 10 µM (hERG (KCNH2)): 52% | Activity (RS4-11 [2]): 77% | Activity (RS4-11 [3]): 25% | Activity (RS4-11 [4]): 87% | Activity (RS4-11 [5]): 84% | Activity (RS4-11 [6]): 91% | Activity (A2780 [7]): 60% | Activity (A2780 [8]): 10% | Activity (A2780 [9]): 80% | inhibition in vivo at 18.75 mg/kg (A2780 [10]): 55% | inhibition in vivo at 37.5 mg/kg (A2780 [11]): 63% | Activity [12]: 1.5% | Activity [13]: 8.7% | Activity [14]: 10.7% | Activity [15]: 16.3% | Activity (A2780 [16]): 0% | T/C (A2780 [17]): 24% | T/C (A2780 [18]): 91% | T/C (A2780 [19]): 63% | T/C (A2780 [20]): 52%

Reference: ChEMBL document CHEMBL5042474, “Structure-Guided Discovery of Potent and Selective DYRK1A Inhibitors” (J Med Chem, 2021)
